Test results: ChEMBL document CHEMBL1201862, “PubChem BioAssay data set” (2004)
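A five-concentration, 48-hour dose response in 96-well plates underlies each endpoint, interpolated linearly between surrounding concentrations. GI50: concentration for 50% inhibition of growth.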 Calls of active or inactive are those of the source. No stated cut-off is given here; in the data, active = GI50 up to about 1.1 µM and inactive = higher.

How the values were obtained:
Test in all cases: NCI anticancer screen, dose series, 48 h
786-0 = system: 786-0
A498 = system: A498
A549 = system: A549
ACHN = system: ACHN
BT-549 = system: BT-549
CAKI-1 = system: CAKI-1
CCRF-CEM = system: CCRF-CEM
COLO 205 = system: COLO 205
DLD-1 = system: DLD-1
DMS-273 = system: DMS-273
DU-145 = system: DU-145
EKVX = system: EKVX
HCC 2998 = system: HCC 2998
HCT-116 = system: HCT-116
HCT-15 = system: HCT-15
HL-60 = system: HL-60
HOP-18 = system: HOP-18
HOP-62 = system: HOP-62
HOP-92 = system: HOP-92
HT-29 = system: HT-29
Hs-578T = system: Hs-578T
IGROV-1 = system: IGROV-1
K562 = system: K562
KM-20L2 = system: KM-20L2
KM12 = system: KM12
LOX IMVI = system: LOX IMVI
LXFL 529 = system: LXFL 529
M14 = system: M14
MCF7 = system: MCF7
MDA-MB-231 = system: MDA-MB-231
MDA-MB-435 = system: MDA-MB-435
MDA-N = system: MDA-N
MOLT-4 = system: MOLT-4
Malme-3M = system: Malme-3M
NCI-H226 = system: NCI-H226
NCI-H23 = system: NCI-H23
NCI-H460 = system: NCI-H460
NCI-H522 = system: NCI-H522
OVCAR-3 = system: OVCAR-3
OVCAR-4 = system: OVCAR-4
OVCAR-5 = system: OVCAR-5
OVCAR-8 = system: OVCAR-8
PC-3 = system: PC-3
RPMI-8226 = system: RPMI-8226
RXF 393 = system: RXF 393
RXF 631 = system: RXF 631
SF-268 = system: SF-268
SF-295 = system: SF-295
SF-539 = system: SF-539
SK-MEL-28 = system: SK-MEL-28
SK-MEL-2 = system: SK-MEL-2
SK-MEL-5 = system: SK-MEL-5
SK-OV-3 = system: SK-OV-3
SN12C = system: SN12C
SNB-19 = system: SNB-19
SNB-75 = system: SNB-75
SNB-78 = system: SNB-78
SR = system: SR
SW-620 = system: SW-620
T47D = system: T47D
TK-10 = system: TK-10
U-251 = system: U-251
UACC-257 = system: UACC-257
UACC-62 = system: UACC-62
UO-31 = system: UO-31
XF498 = system: XF498

Question: `COc1cccc2c1C(=O)c1c(O)c3c(c(O)c1C2=O)C[C@@](O)(C(=O)CO)C[C@@H]3OC1CC(N)C(OC)C(C)O1` (stereo partly specified) was tested. Which GI50 (786-0) did it give?
Answer: The GI50 was 0.0327 µM (active).

Question: And the GI50 (A498)?
Answer: The GI50 was 0.116 µM (active).

Question: What about the GI50 (A549) of the same molecule?
Answer: Its GI50 is 0.0269 µM (active).

Question: And the GI50 (ACHN)?
Answer: The GI50 was 0.0242 µM (active).

Question: What about the GI50 (BT-549) of the same molecule?
Answer: Its GI50 is 0.27 µM (active).

Question: What about the GI50 (CAKI-1) of the same molecule?
Answer: The GI50 was 0.054 µM (active).

Question: And the GI50 (CCRF-CEM)?
Answer: Its GI50 is < 0.0146 µM (active).

Question: And the GI50 (COLO 205)?
Answer: The GI50 was 0.209 µM (active).

Question: And the GI50 (DLD-1)?
Answer: The GI50 was 0.0667 µM (active).

Question: And the GI50 (DMS-273)?
Answer: Its GI50 is 0.0122 µM (active).

Question: And the GI50 (DU-145)?
Answer: Its GI50 is 0.264 µM (active).

Question: What about the GI50 (EKVX) of the same molecule?
Answer: The GI50 was 0.522 µM (active).

Question: What about the GI50 (HCC 2998) of the same molecule?
Answer: The GI50 was 0.139 µM (active).

Question: And the GI50 (HCT-116)?
Answer: Its GI50 is 0.0282 µM (active).

Question: And the GI50 (HCT-15)?
Answer: Its GI50 is 1.98 µM.

Question: And the GI50 (HL-60)?
Answer: Its GI50 is < 0.0163 µM (active).

Question: And the GI50 (HOP-18)?
Answer: The GI50 was 0.156 µM (active).

Question: What about the GI50 (HOP-62) of the same molecule?
Answer: Its GI50 is 0.0234 µM (active).

Question: What about the GI50 (HOP-92) of the same molecule?
Answer: Its GI50 is 0.0612 µM (active).

Question: And the GI50 (HT-29)?
Answer: The GI50 was 0.0559 µM (active).

Question: What about the GI50 (Hs-578T) of the same molecule?
Answer: Its GI50 is 0.138 µM (active).

Question: What about the GI50 (IGROV-1) of the same molecule?
Answer: Its GI50 is 0.108 µM (active).

Question: And the GI50 (K562)?
Answer: Its GI50 is 0.0284 µM (active).

Question: And the GI50 (KM-20L2)?
Answer: Its GI50 is 0.148 µM (active).

Question: And the GI50 (KM12)?
Answer: The GI50 was 0.0968 µM (active).

Question: What about the GI50 (LOX IMVI) of the same molecule?
Answer: The GI50 was 0.0228 µM (active).

Question: What about the GI50 (LXFL 529) of the same molecule?
Answer: Its GI50 is 0.0776 µM (active).

Question: What about the GI50 (M14) of the same molecule?
Answer: Its GI50 is 0.0975 µM (active).

Question: And the GI50 (MCF7)?
Answer: Its GI50 is < 0.01 µM (active).

Question: And the GI50 (MDA-MB-231)?
Answer: Its GI50 is 0.474 µM (active).

Question: And the GI50 (MDA-MB-435)?
Answer: Its GI50 is 0.267 µM (active).

Question: What about the GI50 (MDA-N) of the same molecule?
Answer: Its GI50 is 0.352 µM (active).

Question: And the GI50 (MOLT-4)?
Answer: Its GI50 is < 0.01 µM (active).

Question: And the GI50 (Malme-3M)?
Answer: Its GI50 is 0.0532 µM (active).

Question: What about the GI50 (NCI-H226) of the same molecule?
Answer: Its GI50 is 0.0553 µM (active).

Question: What about the GI50 (NCI-H23) of the same molecule?
Answer: The GI50 was 0.0605 µM (active).

Question: And the GI50 (NCI-H460)?
Answer: Its GI50 is < 0.01 µM (active).

Question: And the GI50 (NCI-H522)?
Answer: The GI50 was 0.076 µM (active).

Question: And the GI50 (OVCAR-3)?
Answer: Its GI50 is 0.338 µM (active).

Question: And the GI50 (OVCAR-4)?
Answer: Its GI50 is 0.458 µM (active).

Question: And the GI50 (OVCAR-5)?
Answer: The GI50 was 0.189 µM (active).

Question: What about the GI50 (OVCAR-8) of the same molecule?
Answer: The GI50 was 0.0289 µM (active).

Question: And the GI50 (PC-3)?
Answer: The GI50 was 0.153 µM (active).

Question: What about the GI50 (RPMI-8226) of the same molecule?
Answer: The GI50 was 0.024 µM (active).

Question: And the GI50 (RXF 393)?
Answer: The GI50 was 0.19 µM (active).

Question: And the GI50 (RXF 631)?
Answer: The GI50 was 0.0329 µM (active).

Question: What about the GI50 (SF-268) of the same molecule?
Answer: The GI50 was 0.0726 µM (active).

Question: What about the GI50 (SF-295) of the same molecule?
Answer: Its GI50 is 0.0206 µM (active).

Question: What about the GI50 (SF-539) of the same molecule?
Answer: The GI50 was 0.0421 µM (active).

Question: What about the GI50 (SK-MEL-28) of the same molecule?
Answer: The GI50 was 0.315 µM (active).

Question: And the GI50 (SK-MEL-2)?
Answer: Its GI50 is 0.161 µM (active).

Question: And the GI50 (SK-MEL-5)?
Answer: The GI50 was 0.0362 µM (active).

Question: What about the GI50 (SK-OV-3) of the same molecule?
Answer: The GI50 was 0.0767 µM (active).

Question: What about the GI50 (SN12C) of the same molecule?
Answer: The GI50 was 0.0378 µM (active).

Question: What about the GI50 (SNB-19) of the same molecule?
Answer: The GI50 was 0.0452 µM (active).

Question: And the GI50 (SNB-75)?
Answer: Its GI50 is 0.0282 µM (active).

Question: And the GI50 (SNB-78)?
Answer: Its GI50 is 0.207 µM (active).

Question: What about the GI50 (SR) of the same molecule?
Answer: The GI50 was < 0.0157 µM (active).

Question: What about the GI50 (SW-620) of the same molecule?
Answer: The GI50 was 0.0249 µM (active).

Question: And the GI50 (T47D)?
Answer: The GI50 was 0.23 µM (active).

Question: And the GI50 (TK-10)?
Answer: The GI50 was 0.838 µM (active).

Question: What about the GI50 (U-251) of the same molecule?
Answer: Its GI50 is 0.0224 µM (active).

Question: And the GI50 (UACC-257)?
Answer: The GI50 was 0.282 µM (active).

Question: What about the GI50 (UACC-62) of the same molecule?
Answer: Its GI50 is 0.0461 µM (active).

Question: And the GI50 (UO-31)?
Answer: The GI50 was 0.437 µM (active).

Question: What about the GI50 (XF498) of the same molecule?
Answer: The GI50 was < 0.01 µM (active).
